Results as given in patent publication US11596611B2, “Hepatitis B antiviral agents” (ENANTA PHARMACEUTICALS, INC., priority 2017, dated 2023).

Columns and labels:
HBV = experiment: HepAD38 antiviral assay: reduction of viral product accumulation (virion DNA by qPCR, HBsAg or HBeAg by ELISA); assay type: cell-based, hepatitis B virus; conditions: Hepatitis B virus, 120 h; HepAD38 cells, five days after compound addition; 50% reduction of viral product vs no drug controls; read-out: HepAD38 EC50
Method in brief: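 Readouts were qPCR of lysed virion DNA plus ELISA for HBsAg or HBeAg, samples diluted into linear range. HepAD38 cells, washed free of tetracycline, received compound diluted 1:200 from DMSO for 5 days; 8-day variant refreshed media and compound on days 2 and 5.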

[1] = Compound toxicity by ATPLite (total ATP levels); assay type: cell-based; conditions: human, three days after compound addition, 50% reduction of total ATP
Method: Methods: HepAD38 cells are maintained as previously reported (Ladner et al, Antimicrob. Agents Chemother. 1997, […], 1715). Briefly, cells are passaged upon attaining confluency in DMEM/F12 media in the presence of 10% FBS, Penn/Strep, 250 μg/mL G418, and 1 ug/ml tetracycline. Novel compounds are screened by first washing cells three times with PBS to remove tetracycline, and plating in 96 well plates at 35,000 cells/well. Compounds dissolved in DMSO are then diluted 1:200 into wells containing cells. Five days after compound addition, material is harvested for analysis. For an extended 8 days analysis, cells are plated and treated as described above, but media and compound are refreshed on d2 and d5 post initial treatment.
Compound toxicity is evaluated by seeding cells at 15,000 cells/well and treating with compound as described above.

Row | Compound | EC50 (HBV) | CC50 at 3 days ([1]; numeric bounds) | CC50 at 3 days ([1]; class symbols)
1 | C[C@H](O)[C@@H](O)[C@@]1(O)C2CC[C@H]1C[C@H](S(=O)(=O)c1cc(C(=O)Nc3cc(F)c(F)c(F)c3)ccc1Cl)C2 (single isomer, unassigned) [Example 137] | < 104 nM | > 6250 nM | –
2 | COCCNC(=O)C[C@]1(O)C2CCC1C[C@@H](S(=O)(=O)c1cc(C(=O)Nc3cc(F)c(F)c(F)c3)ccc1Cl)C2 [Example 114] | < 104 nM | > 6250 nM | –
3 | O=C(C[C@]1(O)C2CCC1C[C@@H](S(=O)(=O)c1cc(C(=O)Nc3cc(F)c(F)c(F)c3)ccc1Cl)C2)N[C@@H]1CCOC1 [Example 73] | < 104 nM | > 6250 nM | –
4 | C[C@H](O)[C@@H](O)[C@]1(O)C2CCC1C[C@@H](S(=O)(=O)c1cc(C(=O)Nc3ccc(F)c(F)c3)ccc1Cl)C2 (mixture of isomers) [Example 173] | < 104 nM | > 6250 nM | –
5 | [2H]C1([2H])C2CCC(C([2H])([2H])[C@]1([2H])S(=O)(=O)c1cc(C(=O)Nc3ccc(F)c(F)c3)ccc1Cl)[C@@]2(O)CO [Example 279] | < 104 nM | – | > 25000 nM
6 | CO[C@H](C)CNC(=O)C[C@]1(O)C2CCC1C[C@@H](S(=O)(=O)c1cc(C(=O)Nc3ccc(F)c(F)c3)ccc1Cl)C2 [Example 189] | < 104 nM | > 12500 nM | –
7 | CC(C)OC(=O)N[C@@H](C)C(=O)NC[C@]1(O)C2CCC1C[C@@H](S(=O)(=O)c1cc(C(=O)Nc3cc(F)c(F)c(F)c3)ccc1Cl)C2 [Example 70] | < 104 nM | – | > 25000 nM
8 | [2H]C1([2H])C2C[C@]([2H])(S(=O)(=O)c3cc(C(=O)Nc4ccc(F)c(F)c4)ccc3Cl)CC(C1([2H])[2H])[C@]2(O)CO [Example 272] | < 104 nM | – | > 25000 nM
9 | O=C(Nc1cc(F)c(F)c(F)c1)c1ccc(Cl)c(S(=O)(=O)[C@H]2CC3CCC(C2)[C@]3(O)CNC(=O)C2CCOCC2)c1 [Example 89] | < 104 nM | > 6250 nM | –
10 | Cn1cc(C(O)[C@]2(O)C3CCC2C[C@@H](S(=O)(=O)c2cc(C(=O)Nc4ccc(F)c(F)c4)ccc2Cl)C3)cn1 (stereo partly shown) [Example 289] | < 104 nM | – | > 25000 nM
11 | C[C@H](O)C(=O)NC[C@]1(O)C2CCC1C[C@@H](S(=O)(=O)c1cc(C(=O)Nc3cc(F)c(F)c(F)c3)ccc1Cl)C2 [Example 13] | < 104 nM | > 6250 nM | –
12 | O=C(Nc1cc(F)c(F)c(F)c1)c1ccc(Cl)c(S(=O)(=O)[C@H]2C3CC[C@H]2C[C@](O)(CCCO)C3)c1 [Example 9] | < 104 nM | > 6250 nM | –
13 | CC(=O)N(C[C@H](C)O)C[C@]1(O)C2CCC1C[C@@H](S(=O)(=O)c1cc(C(=O)Nc3cc(F)c(F)c(F)c3)ccc1Cl)C2 [Example 125] | < 104 nM | > 6250 nM | –
14 | O=C(Nc1ccc(F)c(F)c1)c1ccc(Cl)c(S(=O)(=O)[C@H]2CC3CCC(C2)[C@]3(O)[C@H](O)c2cccnc2)c1 (single isomer, unassigned) [Example 285b] | < 104 nM | – | > 25000 nM
15 | O=C(Nc1ccc(F)c(F)c1)c1ccc(Cl)c(S(=O)(=O)[C@H]2CC3CCC(C2)[C@]3(O)CNC(=O)c2ncco2)c1 [Example 167] | < 104 nM | > 12500 nM | –
16 | CC(O)C[C@@]1(O)C2CC[C@H]1C[C@H](S(=O)(=O)c1cc(C(=O)Nc3ccc(F)c(F)c3)ccc1Cl)C2 (stereo partly shown) [Example 218] | < 104 nM | – | 10000 to 25000 nM
17 | CN1CCC[C@@H]1C(=O)NC[C@]1(O)C2CCC1C[C@@H](S(=O)(=O)c1cc(C(=O)Nc3cc(F)c(F)c(F)c3)ccc1Cl)C2 [Example 1] | < 104 nM | > 3000 nM | –
18 | CC(C)(O)CNC(=O)C[C@]1(O)C2CCC1C[C@@H](S(=O)(=O)c1cc(C(=O)Nc3cc(F)c(F)c(F)c3)ccc1Cl)C2 [Example 71] | < 104 nM | > 3000 nM | –
19 | COC(C)(C)CNC(=O)C[C@]1(O)C2CCC1C[C@@H](S(=O)(=O)c1cc(C(=O)Nc3ccc(F)c(F)c3)ccc1Cl)C2 [Example 191] | < 104 nM | – | > 25000 nM

Row | Compound | EC50 (HBV) | CC50 at 3 days ([1]; numeric bounds) | CC50 at 3 days ([1]; class symbols)
20 | O=C(C[C@]1(O)C2CCC1C[C@@H](S(=O)(=O)c1cc(C(=O)Nc3cc(F)c(F)c(F)c3)ccc1Cl)C2)N[C@H]1CCOC1 [Example 72] | < 104 nM | > 3000 nM | –
21 | C[C@@H](O)[C@H](O)[C@]1(O)C2CCC1C[C@@H](S(=O)(=O)c1cc(C(=O)Nc3ccc(F)c(F)c3)ccc1Cl)C2 (single isomer, unassigned) [Example 183] | < 104 nM | – | > 25000 nM
22 | O=C(C[C@]1(O)C2CCC1C[C@@H](S(=O)(=O)c1cc(C(=O)Nc3ccc(F)c(F)c3)ccc1Cl)C2)NC1CC(O)C1 (stereo partly shown) [Example 192] | < 104 nM | > 12500 nM | –
23 | CC(=O)C[C@@]1(O)C2CC[C@H]1C[C@H](S(=O)(=O)c1cc(C(=O)Nc3ccc(F)c(F)c3)ccc1Cl)C2 [Example 215] | < 104 nM | – | > 25000 nM
24 | CC(C)(O)[C@@H](O)[C@@]1(O)C2CC[C@H]1C[C@H](S(=O)(=O)c1cc(C(=O)Nc3ccc(F)c(F)c3)ccc1Cl)C2 [Example 332] | < 104 nM | – | > 25000 nM
25 | C[C@@H](O)[C@@H](O)[C@@]1(O)C2CC[C@H]1C[C@H](S(=O)(=O)c1cc(C(=O)Nc3cc(F)c(F)c(F)c3)ccc1Cl)C2 (single isomer, unassigned) [Example 136] | < 104 nM | > 12500 nM | –
26 | CC=CCNC(=O)C[C@]1(O)C2CCC1C[C@@H](S(=O)(=O)c1cc(C(=O)Nc3cc(F)c(F)c(F)c3)ccc1Cl)C2 [Example 53] | < 104 nM | > 6250 nM | –
27 | C[C@@H](O)[C@H](O)COC[C@]1(O)C2CCC1C[C@@H](S(=O)(=O)c1cc(C(=O)Nc3cc(F)c(F)c(F)c3)ccc1Cl)C2 [Example 36] | < 104 nM | – | > 25000 nM
28 | O=C(Nc1cc(F)c(F)c(F)c1)c1ccc(Cl)c(S(=O)(=O)[C@H]2CC3CCC(C2)[C@]3(O)CNC(=O)c2ncco2)c1 [Example 88] | < 104 nM | > 6250 nM | –
29 | O=C(C[C@]1(O)C2CCC1C[C@@H](S(=O)(=O)c1cc(C(=O)Nc3cc(F)c(F)c(F)c3)ccc1Cl)C2)N[C@H]1C[C@H](O)C1 [Example 111] | < 104 nM | > 3000 nM | –
30 | C[C@H](O)[C@@H](O)[C@]1(O)C2CCC1C[C@@H](S(=O)(=O)c1cc(C(=O)Nc3ccc(F)c(F)c3)ccc1Cl)C2 (single isomer, unassigned) [Example 182] | < 104 nM | – | > 25000 nM
31 | O=C(Nc1ccc(F)c(F)c1)c1ccc(Cl)c(S(=O)(=O)[C@H]2CC3CCC(C2)[C@]3(O)C(O)Cc2ccccn2)c1 (stereo partly shown) [Example 319] | < 104 nM | – | > 25000 nM
32 | O=C(Nc1ccc(F)c(F)c1)c1ccc(Cl)c(S(=O)(=O)[C@H]2CC3CCC(C2)[C@]3(O)[C@@H](O)c2cccnc2)c1 (single isomer, unassigned) [Example 285a] | < 104 nM | – | > 25000 nM
33 | C[C@@H](O)[C@H](O)COC[C@]1(O)C2CCC1C[C@@H](S(=O)(=O)c1cc(C(=O)Nc3cc(F)c(F)c(F)c3)ccc1Cl)C2 (single isomer, unassigned) [Example 163] | < 104 nM | – | > 25000 nM
34 | [2H]c1cc(F)c(F)c([2H])c1NC(=O)c1ccc(Cl)c(S(=O)(=O)[C@@H]2C([2H])([2H])C3CC[C@@H](C2([2H])[2H])[C@@]3(O)[C@@H](O)[C@H](C)O)c1 [Example 338] | < 104 nM | – | > 25000 nM
35 | O=C(Nc1ccc(F)c(F)c1)c1ccc(Cl)c(S(=O)(=O)[C@H]2CC3CCC(C2)[C@]3(O)[C@H](O)c2ccccn2)c1 (single isomer, unassigned) [Example 284b] | < 104 nM | – | > 25000 nM
36 | O=C(Nc1ccc(F)c(F)c1)c1ccc(Cl)c(S(=O)(=O)[C@H]2CC3CCC(C2)[C@]3(O)C2CO2)c1 (stereo partly shown) [Example 308] | < 104 nM | – | > 25000 nM
37 | C[C@@H](O)[C@@H](O)[C@]1(O)C2CCC1C[C@@H](S(=O)(=O)c1cc(C(=O)Nc3ccc(F)c(F)c3)ccc1Cl)C2 (single isomer, unassigned) [Example 180] | < 104 nM | – | > 25000 nM
38 | CC(=O)N(C[C@@H](C)O)C[C@]1(O)C2CCC1C[C@@H](S(=O)(=O)c1cc(C(=O)Nc3cc(F)c(F)c(F)c3)ccc1Cl)C2 [Example 126] | < 104 nM | > 6250 nM | –
